Series [1] relates to hCMEC/D3 cells. The series is described as follows: Quantitative analysis of ezrin (and other proteins) recruitment under Nm bacterial colonies. As to conditions: for ezrin recruitment / ezrin-containing cortical plaques under Nm colonies after siRNA: infection three days after transfection.
Excerpt: The recruitment efficiency was estimated by determining the proportion of colonies positive for the indicated protein of interest. At least 50 colonies were observed per coverslip. Each experiment was repeated several times in duplicate or triplicate. Data was examined for significance using Student's t-test.
(§2) The day before the infection, hCMEC/D3 cells were serum-starved in EBM-2 medium containing 0.1% Bovine Serum albumin (BSA). The day of infection, bacteria from an overnight culture were adjusted to OD600=0.05 and incubated for 2 h at 37° C. in pre-warmed starvation medium. Bacteria were added to cells at a multiplicity of infection (MOI) of 100 and allowed to adhere for 30 minutes. Unbound bacteria were washed with fresh medium and infection was allowed to proceed for 2 h. When needed, drugs were added to cell culture 1 h before infection. Bacteria were tested for growth and aggregation. […] The OD600 was then measured after 1, 2, 3, 4 and 8 h. Aggregation was determined after 2 h of incubation in EBM2, 0.1% BSA in the presence or absence of 100 μM isoproterenol at 37° C. in a 5% CO2 atmosphere under constant shaking.
For each Nm strain, the recruitment efficiency was estimated by determining the proportion of colonies that efficiently recruited the protein of interest in a “honeycomb shape” just under the colonies. […] At least 50 colonies were scrutinized per coverslip. Each experiment was repeated several times (at least 3). Data was examined for significance using Student's t-test.
In the next series the test system is N. meningitidis. Description: Nm growth in culture and bacterial aggregation. As to conditions: 100 μM isoproterenol; data not shown.
The test system of series [2] is hCMEC/D3 cells. Description: Nm adhesion under shear stress (under flow). It counts as cell-based, human. As to conditions: pre-treatment with 10 μM isoproterenol, shear stress 0.04 dyn/cm^2. How it is done:
(§1) hCMEC/D3 cells were grown on disposable flow chambers (15 μ-Slide VI, IBIDI) coated with 5 μg/cm^2 of rat-tail collagen type I. For experiments investigating Nm colony growth under shear stress, 10^7 bacteria were introduced into the flow chamber and allowed to adhere for […] without flow. Subsequently, a flow corresponding to a shear stress of 0.2 dyn/cm^2 was applied using a syringe pump (Harvard Apparatus). For adhesion assays under shear stress, 10^7 bacteria were allowed to adhere for 20 min under a shear stress of 0.04 dyn/cm^2, then the chambers were washed 1 min under a shear stress of 1 dyn/cm^2 (Mairey et al., 2008. J Exp Med 203, 1939-1950).
GFP expression in bacteria was induced by adding 1 mM IPTG in EBM2, 0.1% BSA. […] For adhesion assays under shear stress, […] were introduced into the flow chamber and allowed to adhere for 20 min under a shear stress of 0.04 dyn/cm2, subsequently the chamber was washed 1 min under a shear stress of 1 dyn/cm2, Fluorescent bacteria in the chambers were observed using an Olympus CKX41 inverted microscope with a 20× objective, equipped with a shutter for the fluorescence I amp and a Hamamatsu ORCA285 CCD camera. […] Images were analyzed using the lmageJ software.

A further series deals with hCMEC/D3 cell monolayers. Description: Nm transmigration assay and cell-cell junction gaps. Format: cell-based, human. How it is done:
hCMEC/D3 cells were grown on 3 μm pore size MilliCell® inserts and infected at a MOI of 10, corresponding to 10^6 bacteria per insert. Four hours after infection, inserts were placed in a well with fresh medium. After additional 30 min, the number of bacteria, which had crossed the cell monolayer was determined by plating the content of the well and counting the number of colony forming units. To estimate the surface and number of macroscopic cell-cell junction openings, MilliCell® inserts were fixed in 4% PFA and immunostained for VE-cadherin and actin, Several baso-lateral cross-sections of each insert were acquired using a Leica SP5 confocal microscope. Surface and number of gaps within the hCMEC/D3 cell monolayer was determined using Leica Application Suite-AF (LAS-AF) software. Data were expressed as the number of gaps per 4×10 ^5 μm^2 of hCMEC/D3 cell monolayer surface. The size of gaps was determined using the apparent size of a Nm diplococcus as surface unit (approximately 1.7 μm^2).
Briefly, hCMEC/D3 cells were grown on 3 μm pore size MilliCell® inserts and infected at a MOI of 10 (10^6 bacteria per insert). […] After 30 min, the number of bacteria, which had crossed the monolayer of endothelial cells, was then measured by plating the content of dilutions of the lower compartment on agar plates and counting the number of colony forming units (CFU). […]

Series [3] relates to hCMEC/D3 cells. The series is described as follows: Growth (size) of Nm colonies on cells under flow. Format: cell-based, human. How it is done: as §1
GFP expression in bacteria was induced by adding 1 mM IPTG in EBM2, 0.1% BSA. For experiments aimed at determining the growth of colonies under shear stress, 107 bacteria were then introduced into the flow chamber and allowed to adhere for 20 min without flow. Subsequently, a flow corresponding to a shear stress of 0.2 dyn/cm2 was applied using a syringe pump (Harvard Apparatus). For adhesion assays under shear stress, […] were introduced into the flow chamber and allowed to adhere for 20 min under a shear stress of 0.04 dyn/cm2, subsequently the chamber was washed 1 min under a shear stress of 1 dyn/cm2, Fluorescent bacteria in the chambers were observed using an Olympus CKX41 inverted microscope with a 20× objective, equipped with a shutter for the fluorescence I amp and a Hamamatsu ORCA285 CCD camera. Images were collected and processed using the Openlab software (Improvision). The field under observation corresponded to a surface of 425 μm by 320 μm with a resolution of 0.63 μm per pixel. Images were analyzed using the lmageJ software.

Series [4] relates to hCMEC/D3 cells. Description: Static adhesion of Nm (absence of flow). As to conditions: isoproterenol pre-treatment.
Description: as §2

Entries after “also recorded” stand apart in the source; their conditions may differ.

We go through five compounds from US20190211066A1 (INSTITUT NATIONAL DE LA SANTE ET DE LA RECHERCHE M EDICALE …, priority 2010, published 2019).

Description for N. meningitidis: as §2

Consider `CC(C)NCC(O)c1ccc(O)c(O)c1` (centres unmarked) [isoproterenol], for which, in the series with hCMEC/D3 cells [1] (hCMEC/D3 cells pre-treated with agonist for 2 h before Nm inoculation, saturating (10×KD) concentrations), the “effect on Nm-induced ezrin recruitment” value is “showed an effect”. The “number of ezrin-containing cortical plaques” value in the series with hCMEC/D3 cells [1] (isoproterenol dose response, hCMEC/D3 cells) is reported as “dose-dependent reduction”. In the series with N. meningitidis, the “direct inhibition of Nm growth in culture or of bacterial aggregation properties” value was “not due to a direct inhibition”. For the same compound, the “reduction of bacterial adhesion / number of colonies forming under flow” value in the series with hCMEC/D3 cells [2] came out at 40%. The “number of cell-cell junction gaps induced by Nm” value in the series with hCMEC/D3 cell monolayers (isoproterenol pre-treatment 10 μM, 1 h, gaps of all size) is “noticeably reduced”. For the same compound, in the series on hCMEC/D3 cell monolayers (isoproterenol pre-treatment 1 h, 10 μM), the “number of meningococci crossing the monolayer (lower chamber of transwells)” value was “markedly reduced”. In addition, the “proportion of small colonies (≤12 μm^2, about 4 bacteria) under flow” value in the series on hCMEC/D3 cells [3] (preincubation of cells for 1 h with 10 μM before perfusion of bacteria, control 20% after 4 h) is reported as “≈ 70%”. In addition, in the series on hCMEC/D3 cells [3] (preincubation of cells for 1 h with 10 μM before perfusion of bacteria, control about 50% after 4 h), the “proportion of large colonies (48 μm^2 or more, ≥16 bacteria) under flow” value was approximately 10%. Moreover, the “bacterial adhesion in static conditions (absence of flow)” value in the series with hCMEC/D3 cells [4] is “No significant difference; also recorded: did not reduce; also recorded: similar”.
Consider `CC(C)NCC(O)COc1cccc2ccccc12` (centres unmarked) [propranolol], for which the “reversal of the effect of isoproterenol pre-treatment on Nm-promoted ezrin recruitment” value in the series with hCMEC/D3 cells [1] (100 nM propranolol added during pre-incubation with 10 μM isoproterenol) is recorded as “blocked the effect of isoproterenol”. In addition, in the series with hCMEC/D3 cells [1] (preincubation with saturating propranolol alone), the “number of ezrin-containing cortical plaques elicited by Nm, agent alone” value was “no effect”.
In the case of “βarr1 and βarr2 siRNAs: small interfering RNAs targeting human βarrestin-1 (SEQ ID NO: 4) and βarrestin-2 (SEQ ID NO: 5) (guide 1 AAAGCCUUCUGCGCGGAGAAU; guide 2 GGCUUGUCCUUCCGCAAAGAC; listed as RNA, chemistry not given here)”, in the series with hCMEC/D3 cells [1] (siRNA-treated Nm-infected hCMEC/D3 cells), the “recruitment of VE-cadherin, p120-catenin, F-actin and ezrin into cortical plaques after siRNA” value was “markedly and simultaneously affected”. In the series on hCMEC/D3 cells [1] (siRNA-treated hCMEC/D3 cells), the “Src recruitment under Nm colonies after siRNA” value is reported as “markedly reduced” and the “ezrin recruitment / ezrin-containing cortical plaques under Nm colonies after siRNA” value is reported as “decrease”.
With `C=C[C@@]1(C)CC(=O)[C@]2(O)[C@@]3(C)[C@@H](O)CCC(C)(C)[C@@H]3[C@H](O)[C@H](OC(C)=O)[C@@]2(C)O1` [forskolin], the “number and size of Nm colonies under flow compared to control conditions” value in the series with hCMEC/D3 cells [3] (pre-incubation 1 h) was “no significant effect”.
As for “GRK2 siRNA: small interfering RNA targeting human GRK2 (SEQ ID NO: 6) (guide AAGAAGUACGAGAAGCUGGAGUU; chemistry not given here)”, in the series with hCMEC/D3 cells [1] (siRNA-treated hCMEC/D3 cells), the “ezrin recruitment / ezrin-containing cortical plaques under Nm colonies after siRNA” value is listed as “inhibited”. Besides, in the series with hCMEC/D3 cells [1] (siRNA-treated hCMEC/D3 cells, βarr2-GFP readout), the “βarr2 recruitment under Nm colonies after siRNA” value is listed as “inhibited”.
